In paper PMC10269165 (Antimicrobial Agents and Chemotherapy, 2023):

Experiment: WST-1 cytotoxicity assay in HCT-8 cells
Format: cell-based, human
Settings: human, HCT-8 cells (human ileocecal colorectal adenocarcinoma), read-out: Mean IC50 ± SEM, Cytotoxicity
Protocol: Compounds were tested for cytotoxicity in human ileocecal colorectal adenocarcinoma cells (HCT-8) (ATCC CCL-244; RRID:CVCL_2478) by using the cell proliferation reagent WST-1 (Roche) according to the manufacturer’s protocol. The WST-1 assay is a quantitative colorimetric assay for measurement of metabolically active cells. This assay is based on the reduction of the tetrazolium salt (WST-1) by viable cells. About 5 × 10^4 HCT-8 cells were seeded per well in 96-well plates and grown overnight in 200 μL of RPMI 1640 medium (without phenol red; Gibco) supplemented with 2.5 g/L of glucose, 1 mM sodium pyruvate, 1.5 g/L of sodium bicarbonate, 10% heat-inactivated FBS (Gibco), and 1× antibiotic-antimycotic (Gibco) at 37°C with 5% CO2 in a humidified incubator. Upon reaching 80 to 90% confluence, cells were treated with various concentrations of the test compounds for 24 h. Control wells received equivalent volumes of DMSO used in the reconstituted compounds. After 24 h of culture, 10 μL of the WST-1 reagent was added to each well, and the plates were incubated in the dark for 1 h at 37°C with 5% CO2. The plates were well agitated, and 150 μL of the medium from each well was transferred to a new clear flat-bottomed black 96-well plate (Corning). The absorbance was read at a test wavelength of 440 nm and a reference wavelength of 690 nm using a multimode microplate reader (Spectra Max iD3; Molecular Devices, USA). All of the reactions were prepared in triplicate. The dose-response curves were generated by nonlinear regression analysis with GraphPad PRISM software using control-normalized data to determine the half-maximal cytotoxicity (IC50) concentrations.

| SMILES | IC50 at 24 h [µM] |
| --- | --- |
| O=c1c(O)cccc2cc(O)c(O)c(O)c12 [NSC35676, purpurogallin] | 566 ± 55.9 |
| CO[C@@]12[C@H](COC(N)=O)C3=C(C(=O)C(C)=C(N)C3=O)N1C[C@H]1[C@@H]2N1C (some centres unmarked) [NSC56410] | 188 ± 4.19 |
